The values below come from patent US20260308109A1 (priority 2022, published 2026).

Experiment [1] concerns the target T1, 5-HT2C (Homo sapiens, UniProt P28335).
T1 sequence (P28335 33-458): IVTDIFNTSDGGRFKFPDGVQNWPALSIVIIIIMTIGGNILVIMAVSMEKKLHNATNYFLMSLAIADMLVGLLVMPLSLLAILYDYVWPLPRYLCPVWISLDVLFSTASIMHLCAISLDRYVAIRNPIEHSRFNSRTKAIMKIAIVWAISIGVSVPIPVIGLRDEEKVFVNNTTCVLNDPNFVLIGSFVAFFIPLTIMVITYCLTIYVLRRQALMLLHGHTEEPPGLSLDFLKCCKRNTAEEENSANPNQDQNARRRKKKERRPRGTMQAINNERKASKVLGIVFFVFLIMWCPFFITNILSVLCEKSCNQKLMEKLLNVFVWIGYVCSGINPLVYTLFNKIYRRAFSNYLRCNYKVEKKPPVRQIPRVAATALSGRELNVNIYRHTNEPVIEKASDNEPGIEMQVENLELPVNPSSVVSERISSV
Put plainly: cell-based. Further details: expressed in transfected cells; host or cells: HEK293; Emax: dose or concentration left out as unconfirmed.

Experiment [2] addresses T2, 5-HT2A (Homo sapiens, UniProt P28223). The experiment is described as follows: cell-based. The format is cell-based. Further details: expressed in transfected cells; host or cells: HEK293; Emax: dose or concentration left out as unconfirmed.
Experiment [3] has as its target T3, 5-HT2B (Homo sapiens, UniProt P41595). The experiment is described as follows: In vitro receptor binding ([3H]-LSD), 5-HT2B. Further details: expressed in transfected cells; host or cells: HEK293 (membranes). The settings on record: for Binding ([3H]-LSD) % Inh: 5-HT2B, HEK293 membrane, radioligand 3H-LSD; for affinity at 5-HT2B: in words.
The target in experiment [4] is T1, 5-HT2C. Put plainly: In vitro receptor binding ([3H]-LSD), 5-HT2C. Details: expressed in transfected cells; host or cells: HEK293 (membranes). The settings on record: for Binding ([3H]-LSD) % Inh: 5-HT2C, HEK293 membrane, radioligand 3H-LSD; for affinity at 5-HT2C: in words; for affinity selectivity for 5-HT2C over 5-HT2A: ratio of Ki.
Experiment [5] concerns the target T2, 5-HT2A. Put plainly: biochemical. The format is binding. Further details: expressed in transfected cells; host or cells: HEK293 (membranes).
For experiment [6], the target named is T3, 5-HT2B. The experiment is described as follows: cell-based. The format is cell-based. Details: expressed in transfected cells; host or cells: HEK293; Emax: dose or concentration left out as unconfirmed.
Experiment [7] relates to TNF-α induced inflammation. The settings on record: Yu et al. 2008; cited from earlier work.
A further experiment deals with 5-HT2A receptor. The settings on record: Flanagan et al. 2020; cited from earlier work.

pEC50, pKi: −log10 of the molar value. Read-outs that look alike come from different tables or passages of the source.

T3 sequence (P41595 whole entry): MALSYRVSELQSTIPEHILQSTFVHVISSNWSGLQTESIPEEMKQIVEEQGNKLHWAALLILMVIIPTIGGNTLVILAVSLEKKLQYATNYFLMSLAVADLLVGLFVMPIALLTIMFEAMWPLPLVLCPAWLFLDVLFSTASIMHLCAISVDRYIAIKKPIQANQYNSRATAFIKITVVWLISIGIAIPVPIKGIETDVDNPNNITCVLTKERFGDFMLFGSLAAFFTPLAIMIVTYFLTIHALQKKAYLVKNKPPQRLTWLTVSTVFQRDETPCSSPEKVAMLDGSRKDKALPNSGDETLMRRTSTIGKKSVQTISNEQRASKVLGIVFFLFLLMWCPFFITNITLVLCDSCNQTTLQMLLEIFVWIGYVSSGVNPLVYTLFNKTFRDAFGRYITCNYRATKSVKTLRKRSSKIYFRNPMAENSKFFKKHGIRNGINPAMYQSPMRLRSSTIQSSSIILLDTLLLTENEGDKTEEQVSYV
T2 sequence (P28223 whole entry): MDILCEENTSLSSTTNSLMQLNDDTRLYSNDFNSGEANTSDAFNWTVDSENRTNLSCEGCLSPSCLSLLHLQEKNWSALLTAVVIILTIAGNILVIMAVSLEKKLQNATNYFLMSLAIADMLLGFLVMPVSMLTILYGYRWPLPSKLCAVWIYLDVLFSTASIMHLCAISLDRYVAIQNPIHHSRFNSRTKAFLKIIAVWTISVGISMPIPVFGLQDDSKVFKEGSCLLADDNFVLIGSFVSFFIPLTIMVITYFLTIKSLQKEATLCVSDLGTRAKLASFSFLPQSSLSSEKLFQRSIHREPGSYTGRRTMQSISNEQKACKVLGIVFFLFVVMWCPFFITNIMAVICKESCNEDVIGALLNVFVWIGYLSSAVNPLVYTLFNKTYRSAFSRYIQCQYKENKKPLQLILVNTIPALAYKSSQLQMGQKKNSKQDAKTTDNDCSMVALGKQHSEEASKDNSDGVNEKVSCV

Take `COc1cc(I)c(OC)c2c1C(CN)C2` (stereo not drawn) [Compound 2, (3-iodo-2,5-dimethoxybicyclo[4.2.0]octa-1,3,5-trien-7-yl)methanamine]: the Bottom at 5-HT2C [1] is on record as 3.427 % of control; on 5-HT2A [2] it was 5.304 % of control; at 5-HT2B [6] it was 3.780 % of control. The HillSlope on 5-HT2C [1] was found to be 1.279; on 5-HT2A [2] it was 1.338; at 5-HT2B [6] it was 1.531. The pEC50 was 7.24 at 5-HT2C [1] (EC50); 7.39 on 5-HT2C [1] (IP-One EC50); 8.00 at 5-HT2A [2] (EC50); 8.00 on 5-HT2A [2] (IP-One EC50); 7.05 on 5-HT2B [6] (EC50); less than 6.52 on 5-HT2B [6] (IP-One EC50). Moreover, the Emax came out at 122% at 5-HT2C [1] (HEK293, read-out: IP-One % MAX); 136% at 5-HT2C [1] (read-out: Top); 127% on 5-HT2A [2] (HEK293, read-out: IP-One % MAX); 124% at 5-HT2A [2] (read-out: Top); 49% at 5-HT2B [6] (HEK293, read-out: IP-One % MAX); 56.2% at 5-HT2B [6] (read-out: Top). Besides, at 5-HT2A [2], the “functional selectivity for 5-HT2A over 5-HT2C” value was “approximately 4 fold”. The negative logarithm of the Ki (pKi) was 7.55 on 5-HT2B [3], 8.52 on 5-HT2C [4] and 7.77 at 5-HT2A [5]. Moreover, the entries for the “Binding ([3H]-LSD) % Inh” value on 5-HT2B [3], at 5-HT2C [4] and at 5-HT2A [5] were 77%, 96% and 2A: 17 nM (96%), respectively. Also, the “affinity at 5-HT2B” value on 5-HT2B [3] is given as “low nanomolar affinity”. Besides, the “affinity at 5-HT2C” value at 5-HT2C [4] is listed as “low nanomolar affinity”. In addition, at 5-HT2C [4], the “affinity selectivity for 5-HT2C over 5-HT2A” value is “approximately 6 fold”. At 5-HT2A [5], the “affinity at 5-HT2A” value is listed as “low nanomolar affinity”. The “affinity selectivity for 5-HT2A over 5-HT2B” value on 5-HT2A [5] is given as “approximately 1.6 fold”. For the same compound, the “functional activity at 5-HT2B” value on 5-HT2B [6] is listed as “minimal functional activity”.

As for `COc1cc(Br)c(OC)c2c1[C@H](CN)C2` [Compound 2C-BCB], in experiment [7], the “effect on TNF-α induced inflammation” value is “same effect, albeit slightly less potent”.

For `COc1ccc(OC)c(CCN)c1` [Compound 2C-H, 2,5-dimethoxyphenethylamine], the anti-inflammatory pharmacophore result in the experiment with 5-HT2A receptor was “primary pharmacophore for anti-inflammatory phenethylamine 5-HT2A receptor agonists”.

Regarding `CCc1cc(OC)c2c(c1OC)CC2CN` (stereo not drawn) [Compound 4, (3-ethyl-2,5-dimethoxybicyclo[4.2.0]octa-1,3,5-trien-7-yl)methanamine], the Bottom on 5-HT2C [1] is on record as 1.236 % of control; at 5-HT2A [2] it was −0.4425 % of control; at 5-HT2B [6], −0.2984 % of control. The figures for the HillSlope on 5-HT2C [1], on 5-HT2A [2] and at 5-HT2B [6] were 1.410, 1.033 and 1.088, respectively. Also, the pEC50 at 5-HT2C [1] (EC50) was 7.97; at 5-HT2C [1] (IP-One EC50) it was 7.96; on 5-HT2A [2] (EC50) it was 8.42; at 5-HT2A [2] (IP-One EC50), 8.40; at 5-HT2B [6] (EC50) it was 7.56; at 5-HT2B [6] (IP-One EC50), 7.15. In addition, the Emax at 5-HT2C [1] (HEK293, read-out: IP-One % MAX) is 104%; on 5-HT2C [1] (read-out: Top), 102%; on 5-HT2A [2] (HEK293, read-out: IP-One % MAX), 114%; on 5-HT2A [2] (read-out: Top), 108%; on 5-HT2B [6] (HEK293, read-out: IP-One % MAX) it was 70%; on 5-HT2B [6] (read-out: Top), 72.8%. For the same compound, on 5-HT2A [2], the “functional selectivity for 5-HT2A over 5-HT2B” value is “approximately 17.5 fold”. Further, the “functional selectivity for 5-HT2A over 5-HT2C” value on 5-HT2A [2] is recorded as “approximately 2.75 fold”. In addition, the pKi on 5-HT2B [3] was 7.37; at 5-HT2C [4], 8.40; at 5-HT2A [5], 7.59. In addition, the “Binding ([3H]-LSD) % Inh” value was 73% on 5-HT2B [3], 89% at 5-HT2C [4] and 2A: 26 nM (90%) at 5-HT2A [5]. Besides, the “affinity at 5-HT2B” value at 5-HT2B [3] is “low nanomolar affinity”. For the same compound, the “affinity at 5-HT2C” value on 5-HT2C [4] is “low nanomolar affinity”. The “affinity selectivity for 5-HT2C over 5-HT2A” value on 5-HT2C [4] is “approximately 6.5 fold”. Besides, the “affinity at 5-HT2A” value on 5-HT2A [5] is reported as “low nanomolar affinity”. Besides, the “affinity selectivity for 5-HT2A over 5-HT2B” value at 5-HT2A [5] is given as “approximately 1.6 fold”. The “functional activity at 5-HT2B” value on 5-HT2B [6] is “significant functional activity”.

Take `COc1cc(CC(C)C)c(OC)c2c1C(CN)C2` (stereo not drawn) [Compound 8, (3-isobutyl-2,5-dimethoxybicyclo[4.2.0]octa-1,3,5-trien-7-yl)methanamine]: the Bottom at 5-HT2C [1] is reported as 2.175 % of control; at 5-HT2A [2] it was 2.988 % of control; at 5-HT2B [6], −0.5387 % of control. Further, the HillSlope was found to be 1.285 at 5-HT2C [1], 1.426 at 5-HT2A [2] and 0.5893 at 5-HT2B [6]. For the same compound, the negative logarithm of the EC50 (pEC50) at 5-HT2C [1] (EC50) is 8.06; at 5-HT2C [1] (IP-One EC50), 8.05; on 5-HT2A [2] (EC50) it was 8.62; at 5-HT2A [2] (IP-One EC50), 8.70; at 5-HT2B [6] (EC50), 3.58; at 5-HT2B [6] (IP-One EC50), 6.53. In addition, the Emax worked out at 117% on 5-HT2C [1] (HEK293, read-out: IP-One % MAX); 120% on 5-HT2C [1] (read-out: Top); 113% on 5-HT2A [2] (HEK293, read-out: IP-One % MAX); 120% on 5-HT2A [2] (read-out: Top); 51% at 5-HT2B [6] (HEK293, read-out: IP-One % MAX); 51.2% at 5-HT2B [6] (read-out: Top). For the same compound, the “functional selectivity for 5-HT2A over 5-HT2B” value on 5-HT2A [2] was “approximately 148.5 fold”. Moreover, on 5-HT2A [2], the “functional selectivity for 5-HT2A over 5-HT2C” value was “approximately 4.5 fold”. The pKi is less than 7.02 on 5-HT2B [3], 8.40 on 5-HT2C [4] and 6.88 at 5-HT2A [5]. Besides, the figures for the “Binding ([3H]-LSD) % Inh” value on 5-HT2B [3], on 5-HT2C [4] and on 5-HT2A [5] were 29%, 93% and 2A: 133 nM (65%), respectively. Further, the “affinity at 5-HT2C” value on 5-HT2C [4] was “low nanomolar affinity”. Besides, the “affinity selectivity for 5-HT2C over 5-HT2A” value on 5-HT2C [4] is on record as “approximately 33 fold”. Moreover, the “functional activity at 5-HT2B” value on 5-HT2B [6] is recorded as “moderate functional activity”.

As to `CC1CC(C)N1C(=O)[C@@H]1C=C2c3cccc4[nH]cc(c34)C[C@H]2N(C)C1` (stereo partly drawn) [LA-SS-Az, lysergic acid 2,4-dimethylazetidide], in experiment [7], the “effect on TNF-α induced inflammation” value is listed as “same effect, albeit slightly less potent”.

Consider `CCN(CC)C(=O)[C@@H]1C=C2c3cccc4[nH]cc(c34)C[C@H]2N(C)C1` [LSD, lysergic acid diethylamide], for which the “effect on TNF-α induced inflammation” value in experiment [7] is listed as “same effect, albeit slightly less potent”.

As usually defined, the pEC50 is the EC50 on a negative log10 scale, so that one unit is a factor of ten. Usually pKi stands for the Ki on a negative log10 scale, so that one unit is a factor of ten.
